Reference: patent US12427103B2, “Cosmetic composition containing Hibiscus manihot l. extract and method for preparing the same” (ALL IN ON Co., Ltd, priority 2022, dated 2025)

Tests used:
RAW264.7 cells = test: Anti-inflammatory effect: nitric oxide (NO) formation inhibition, GRIESS method, LPS stimulus; format: cell-based, mouse; conditions: RAW264.7, 10 ppm, LPS 1 μg, 24 hours
Experimental: An anti-inflammatory effect was confirmed with respect to above Examples 1 to 4 and Comparative Examples 1 to 8.
In order to confirm the anti-inflammatory effect and skin trouble alleviation effect of Examples 1 to 4 and Comparative Examples 1 to 8, an experiment on nitric oxide (NO) formation inhibitory power was performed with a GRIESS method using RAW264.7 cell lines (ATCC number: CRL-2278).
Specifically, RAW264.7 cells, which are mouse macrophages, were subcultured several times and placed in a 24-well plate so that 3×10^5 cells were put into each well, and then incubated for 24 hours. Then, Examples 1 to 4 and Comparative Examples 1 to 8 were replaced with a diluted cell medium at a concentration of 10 ppm. At this time, L-NMMA (L-NG-Monomethylarginine), a NO-production inhibitor, was treated together as a positive control and incubated for 30 minutes, and then 1 μg of lipopolysaccharide (LPS) was treated as a stimulus and cultured for 24 hours. 100 μl of the supernatant was transferred to a 96-well plate and reacted at room temperature for 10 minutes with the addition of 100 μl of GRIESS solution, so as to measure the absorbance at 540 nm, thereby determining an NO inhibitory effect of the compound of Formula 1, and the results are shown in table 4 below.

[1] = Antioxidant effect: free radical scavenging by DPPH method; format: biochemical; conditions: 30 minutes, 517 nm, based on vitamin C 0.1% as 100%
Experimental: An antioxidant effect experiment was performed to confirm an antioxidant effect of Examples 1 to 4 and Comparative Examples 1 to 8 through a free radical scavenging effect using a DPPH method according to a known method. 100 μl of Examples 1 to 4 and Comparative Examples 1 to 8 were dispensed into 96 microplates, and 10 μl of a 2,2-diphenyl-1-picrylhydrazyl (DPPH) solution dissolved in ethanol to reach 1 mM was added thereto. After a reaction in 30 minutes later at room temperature, absorbance was measured at 517 nm to measure a free radical scavenging activity. An experiment was performed with vitamin C at a concentration of 0.1% as a control group along with the compositions of Examples 1 to 4 and Comparative Examples 1 to 8. The results are shown in table 3 based on the free radical scavenging effect of vitamin C as 100%.

Structure (SMILES)	NO production inhibition rate (%) (RAW264.7 cells)	Free radical scavenging effect (%) [1]
CNC(=N)NCCC[C@H](N)C(=O)O [L-NMMA, L-NG-Monomethylarginine]	39.14%	
O=C1O[C@H]([C@@H](O)CO)C(O)=C1O [vitamin C]		100%
